Assays:
Type in all cases: biochemical
[1] = molecular target: GSK3-β (AA 1-420) (Homo sapiens, UniProt P49841); assay: GSK-3 inhibition assay (coupled enzyme system); conditions: 10 μM ATP, 300 μM peptide, 60 nM GSK-3β, 30° C.
Protocol: Compounds were screened for their ability to inhibit GSK3-β (AA 1-420) activity using a standard coupled enzyme system (Fox et al. (1998) Protein Sci. 7, 2249). Reactions were carried out in a solution containing 100 mM HEPES (pH 7.5), 10 mM MgCl2, 25 mM NaCl, 300 μM NADH, 1 mM DTT and 1.5% DMSO. Final substrate concentrations in the assay were 10 μM ATP (Sigma Chemicals, St Louis, Mo.) and 300 μM peptide (HSSPHQS(PO3H2)EDEEE, American Peptide, Sunnyvale, Calif.). Reactions were carried out at 30° C. and 60 nM GSK-3β. Final concentrations of the components of the coupled enzyme system were 2.5 mM phosphoenolpyruvate, 300μM NADH, 30 μg/ml pyruvate kinase and 10 μg/ml lactate dehydrogenase.
An assay stock buffer solution was prepared containing all of the reagents listed above with the exception of ATP and the test compound of interest. 59 μl of the test reaction was placed in a 96 well ½-diameter plate (Corning, Corning, N.Y.) then treated with 1 μl of a 2 mM DMSO stock containing the test compound (final compound concentration 30 μM). The plate was incubated for ˜10 minutes at 30° C. then the reaction initiated by addition of 7 μl of ATP (final concentration 10 μM). Rates of reaction were obtained using a Molecular Devices Spectramax plate reader (Sunnyvale, Calif.) over a 5 minute read time at 30° C.
(§1) The compound numbers correspond to the compound numbers in Table 1.

[2] = molecular target: T1, Aurora2 (Homo sapiens, UniProt O14965); assay: Aurora2 inhibition assay (coupled enzyme assay); conditions: 800 μM peptide LRRASLG, 70 nM Aurora2, 30° C.
T1 sequence (O14965 1-403): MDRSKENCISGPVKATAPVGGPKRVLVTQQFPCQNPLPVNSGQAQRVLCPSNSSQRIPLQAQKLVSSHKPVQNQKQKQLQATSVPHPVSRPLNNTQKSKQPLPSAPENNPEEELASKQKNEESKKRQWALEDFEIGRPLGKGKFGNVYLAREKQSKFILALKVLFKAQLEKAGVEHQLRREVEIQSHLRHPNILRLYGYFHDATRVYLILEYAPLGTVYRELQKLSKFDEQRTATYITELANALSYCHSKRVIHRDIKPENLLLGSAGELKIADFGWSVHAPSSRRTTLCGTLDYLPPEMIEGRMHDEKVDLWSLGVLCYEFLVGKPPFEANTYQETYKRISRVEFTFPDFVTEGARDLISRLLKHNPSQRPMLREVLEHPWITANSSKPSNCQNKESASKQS
Protocol: Compounds are screened in the following manner for their ability to inhibit Aurora2 using a standard coupled enzyme assay (Fox et al (1998). Protein Sci 7, 2246). To an assay stock buffer solution containing 0.1M HEPES 7.5, 10 mM MgCl2, 1 mM DTT, 25 mM NaCl, 2.5 mM prosphoenolpyruvate, […], […] pyruvate kinase, […] lactate dehydrogenase, […], and 800 μM peptide (LRRASLG, American Peptide, Sunnyvale, Calif.) is added a DMSO solution of a compound of the present invention to a final concentration of 30 μM. The resulting mixture is incubated at 30° C. for 10 minutes. The reaction was initiated by the addition of 10 μL of Aurora2 stock solution to give a final concentration of 70 nM in the assay. The rates of reaction are obtained by monitoring absorbance at 340 nm over a 5 minute read time at 30° C. using a BioRad Ultramark plate reader (Hercules, Calif.). The IC50 values are determined from the rate data as a function of inhibitor concentration.
as §1

[3] = molecular target: Syk (Homo sapiens, UniProt P43405); assay: Syk inhibition assay (coupled enzyme assay); conditions: 200 μM ATP, 4 μM poly Gly-Tyr peptide, 30° C.
Protocol: Reactions were carried out in 100 mM HEPES pH 7.5, 10 mM MgCl2, 25 mM NaCl, 1 mM DTT and 1.5% DMSO. Final substrate .concentrations in the assay were 200 μM ATP (Sigmachemical Co.) and 4 μM poly Gly-Tyr peptide (Sigma Chemical Co.). Assays were carried out at 30° C. and 200 nM Syk. Final concentrations of the components of the coupled enzyme system were 2.5 mM phosphoenolpyruvate, 300 μM NADH, 30 μg/ml pyruvate kinase and 10 μg/ml lactate dehydrogenase.
An assay stock buffer solution was prepared containing all of the reagents listed above, with the exception of Syk, DTT and the test compound of interest. 56 μl of the test reaction was placed in a 96 well plate followed by the addition of 1 μl of 2 mM DMSO stock containing the test compound (final compound concentration 30 μM). […] Rates of reaction were obtained using a BioRad Ultramark plate reader (Hercules, Calif.) over a 5 minute read time at 30° C.
as §1

GSK3-β (AA 1-420), sequence (P49841 whole entry, the tested form may be a part): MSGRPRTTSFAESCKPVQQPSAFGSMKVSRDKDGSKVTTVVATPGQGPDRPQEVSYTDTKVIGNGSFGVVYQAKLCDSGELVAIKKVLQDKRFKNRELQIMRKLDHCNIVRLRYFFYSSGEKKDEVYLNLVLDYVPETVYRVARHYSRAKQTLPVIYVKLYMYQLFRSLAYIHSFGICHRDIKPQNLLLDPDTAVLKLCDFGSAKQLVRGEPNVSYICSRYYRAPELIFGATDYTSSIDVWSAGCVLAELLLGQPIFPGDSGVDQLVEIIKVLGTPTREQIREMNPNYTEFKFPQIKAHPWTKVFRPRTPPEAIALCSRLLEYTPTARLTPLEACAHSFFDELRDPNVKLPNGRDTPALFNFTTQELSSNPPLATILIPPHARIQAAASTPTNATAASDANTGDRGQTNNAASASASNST

| Compound | Ki [1] | IC50 [2] | IC50 [3] |
| --- | --- | --- | --- |
| c1ccc(COc2cccc(Nc3nccc(-c4nccs4)n3)c2)nc1 [Compound I-20] | < 100 nM | < 500 nM | – |
| c1ccc(Oc2cccc(Nc3nccc(-c4nccs4)n3)c2)nc1 [Compound I-53] | – | – | 500 to 2000 nM |
| c1cc(Nc2nccc(-c3nccs3)n2)cc(Oc2ccncc2)c1 [Compound I-56] | – | 500 to 2000 nM | 500 to 2000 nM |
| COc1ccc(Nc2nccc(-c3nccs3)n2)cc1Oc1ccc(Cl)cc1 [Compound I-111] | < 100 nM | – | – |
| c1ccc(COc2ccc(Nc3nccc(-c4nccs4)n3)cc2)cc1 [Compound I-10] | > 1000 nM | > 2000 nM | – |
| Cc1cnc(Nc2cccc(-c3cccnc3)c2)nc1-c1nccs1 [Compound I-87] | < 100 nM | – | – |
| Cc1cnc(Nc2cccc(-c3cccc(N)c3)c2)nc1-c1nccs1 [Compound I-90] | < 100 nM | – | – |
| FC(F)(F)c1ccccc1-c1cccc(Nc2nccc(-c3nccs3)n2)c1 [Compound I-27] | < 100 nM | – | – |
| Cc1cnc(Nc2cccc(-c3ccc(O)cc3)c2)nc1-c1nccs1 [Compound I-84] | < 100 nM | – | – |
| Fc1ccccc1COc1cccc(Nc2nccc(-c3nccs3)n2)c1 [Compound I-41] | < 100 nM | > 2000 nM | – |
| COc1ccc(Nc2nccc(-c3nccs3)n2)cc1 [Compound I-70] | – | 500 to 2000 nM | – |
| COc1ccc(Oc2ccccc2)cc1Nc1nccc(-c2nccs2)n1 [Compound I-114] | > 1000 nM | 500 to 2000 nM | – |
| COc1ccc(Nc2nccc(-c3nccs3)n2)cc1Oc1cccc(F)c1 [Compound I-105] | < 100 nM | – | – |
| Cc1ccccc1COc1cccc(Nc2nccc(-c3nccs3)n2)c1 [Compound I-115] | < 100 nM | – | > 2000 nM |
| Clc1cccc(Nc2nccc(-c3nccs3)n2)n1 [Compound I-28] | < 100 nM | > 2000 nM | – |
| COc1cc(F)cc(-c2cccc(Nc3nccc(-c4nccs4)n3)c2)c1 [Compound I-15] | < 100 nM | – | – |
| CCOc1ccc(-c2cccc(Nc3nccc(-c4nccs4)n3)c2)cc1 [Compound I-33] | < 100 nM | – | – |

| Compound | Ki [1] | IC50 [2] | IC50 [3] |
| --- | --- | --- | --- |
| COc1ccc(OC)c(-c2cccc(Nc3nccc(-c4nccs4)n3)c2)c1 [Compound I-54] | < 100 nM | – | – |
| COc1ccccc1COc1cccc(Nc2nccc(-c3nccs3)n2)c1 [Compound I-44] | < 100 nM | – | < 500 nM |
| c1ccc(Oc2ccc(Nc3nccc(-c4nccs4)n3)cc2)cc1 [Compound I-13] | – | > 2000 nM | – |
| COc1ccc(-c2cccc(Nc3nccc(-c4nccs4)n3)c2)c(OC)c1OC [Compound I-12] | < 100 nM | – | – |
| c1cncc(COc2cccc(N(Cc3cccnc3)c3nccc(-c4nccs4)n3)c2)c1 [Compound I-26] | – | < 500 nM | – |
| FC(F)(F)c1ccccc1COc1cccc(Nc2nccc(-c3nccs3)n2)c1 [Compound I-47] | < 100 nM | – | > 2000 nM |
| COc1ccc(-c2ccccc2)cc1Nc1nccc(-c2nccs2)n1 [Compound I-96] | > 1000 nM | – | – |
| COc1ccc(Nc2nccc(-c3nccs3)n2)cc1Oc1cccc(Cl)c1 [Compound I-108] | 100 to 1000 nM | – | – |
| CCOc1ccccc1-c1cccc(Nc2nccc(-c3nccs3)n2)c1 [Compound I-36] | 100 to 1000 nM | – | – |
| Fc1ccc(COc2cccc(Nc3nccc(-c4nccs4)n3)c2)cc1F [Compound I-85] | < 100 nM | > 2000 nM | – |
| COc1cccc(OC)c1-c1cccc(Nc2nccc(-c3nccs3)n2)c1 [Compound I-51] | 100 to 1000 nM | – | – |
| c1ccc(Oc2ccc(-c3cccc(Nc4nccc(-c5nccs5)n4)c3)cc2)cc1 [Compound I-9] | < 100 nM | – | – |
| Fc1cc(F)cc(COc2cccc(Nc3nccc(-c4nccs4)n3)c2)c1 [Compound I-103] | < 100 nM | > 2000 nM | – |
| COc1cc(O)ccc1-c1cccc(Nc2nccc(-c3nccs3)n2)c1 [Compound I-75] | < 100 nM | – | – |
| COc1ccc(Oc2ccccc2)cc1Nc1ncc(C)c(-c2nccs2)n1 [Compound I-117] | > 1000 nM | – | – |
| COc1ccc(-c2ccccc2)cc1Nc1ncc(C)c(-c2nccs2)n1 [Compound I-93] | > 1000 nM | – | – |
| Cc1cnc(Nc2cccc(C(F)(F)F)c2)nc1-c1nccs1 [Compound I-99] | < 100 nM | – | – |

Further lines, results first:

| Ki [1] | IC50 [2] | IC50 [3] | Compound |
| --- | --- | --- | --- |
| < 100 nM | – | – | c1cncc(-c2cccc(Nc3nccc(-c4nccs4)n3)c2)c1 [Compound I-63] |
| < 100 nM | – | – | Oc1ccc(-c2cccc(Nc3nccc(-c4nccs4)n3)c2)cc1 [Compound I-66] |
| – | > 2000 nM | > 2000 nM | O=[N+]([O-])c1cccc(Oc2cccc(Nc3nccc(-c4nccs4)n3)c2)c1 [Compound I-59] |
| < 100 nM | – | – | Oc1cccc(-c2cccc(Nc3nccc(-c4nccs4)n3)c2)c1 [Compound I-72] |
| < 100 nM | > 2000 nM | – | Fc1cccc(COc2cccc(Nc3nccc(-c4nccs4)n3)c2)c1 [Compound I-100] |
| > 1000 nM | – | – | Clc1ccc(Cl)c(-c2cccc(Nc3nccc(-c4nccs4)n3)c2)c1 [Compound I-21] |
| < 100 nM | – | – | CN(C)c1ccc(-c2cccc(Nc3nccc(-c4nccs4)n3)c2)cc1 [Compound I-81] |
| < 100 nM | – | – | Cc1ccccc1-c1cccc(Nc2nccc(-c3nccs3)n2)c1 [Compound I-3] |
| < 100 nM | – | – | FC(F)(F)c1cccc(-c2cccc(Nc3nccc(-c4nccs4)n3)c2)c1 [Compound I-30] |
| < 100 nM | – | – | N#Cc1ccc(-c2cccc(Nc3nccc(-c4nccs4)n3)c2)cc1 [Compound I-48] |
| < 100 nM | – | – | CCOc1cccc(-c2cccc(Nc3nccc(-c4nccs4)n3)c2)c1 [Compound I-42] |
| < 100 nM | – | – | CS(=O)(=O)c1ccc(-c2cccc(Nc3nccc(-c4nccs4)n3)c2)cc1 [Compound I-45] |
| < 100 nM | – | – | Nc1cccc(-c2cccc(Nc3nccc(-c4nccs4)n3)c2)c1 [Compound I-57] |
| < 100 nM | – | – | CSc1ccc(-c2cccc(Nc3nccc(-c4nccs4)n3)c2)cc1 [Compound I-60] |
| < 100 nM | – | – | Clc1cccc(-c2cccc(Nc3nccc(-c4nccs4)n3)c2)c1Cl [Compound I-24] |
| < 100 nM | > 2000 nM | – | N#Cc1cccc(COc2cccc(Nc3nccc(-c4nccs4)n3)c2)c1 [Compound I-79] |
| < 100 nM | – | – | Fc1ccccc1-c1cccc(Nc2nccc(-c3nccs3)n2)c1 [Compound I-6] |
| < 100 nM | > 2000 nM | – | O=[N+]([O-])c1ccc(Nc2nccc(-c3nccs3)n2)cc1 [Compound I-40] |
| – | > 2000 nM | – | O=[N+]([O-])c1cccc(Nc2cccc(Nc3nccc(-c4nccs4)n3)c2)c1 [Compound I-97] |
| < 100 nM | – | – | Oc1ccccc1-c1cccc(Nc2nccc(-c3nccs3)n2)c1 [Compound I-69] |
| < 100 nM | – | – | c1cc(Nc2nccc(-c3nccs3)n2)cc(-c2ccc3[nH]ccc3c2)c1 [Compound I-78] |
| < 100 nM | – | – | Cc1ccc(C)c(-c2cccc(Nc3nccc(-c4nccs4)n3)c2)c1 [Compound I-39] |
| < 100 nM | – | – | Fc1ccc(-c2cccc(Nc3nccc(-c4nccs4)n3)c2)c(F)c1 [Compound I-18] |
